Assay results taken from US20250099448A1, “HETEROCYCLIC COMPOUNDS” (Hoffmann-La Roche Inc., priority 2022, published 2025).

What follows are molecules tested against T1, MAGL protein (Homo sapiens, UniProt Q99685) (assay: 2-AG assay: MAGL inhibitory activity by hydrolysis of 2-arachidonoylglycerol to arachidonic acid, followed by mass spectrometry). Details: 8 μM 2-arachidonoylglycerol, 15 min preincubation, 30 min reaction at RT, RapidFire MS readout.
T1 sequence (Q99685 1-303): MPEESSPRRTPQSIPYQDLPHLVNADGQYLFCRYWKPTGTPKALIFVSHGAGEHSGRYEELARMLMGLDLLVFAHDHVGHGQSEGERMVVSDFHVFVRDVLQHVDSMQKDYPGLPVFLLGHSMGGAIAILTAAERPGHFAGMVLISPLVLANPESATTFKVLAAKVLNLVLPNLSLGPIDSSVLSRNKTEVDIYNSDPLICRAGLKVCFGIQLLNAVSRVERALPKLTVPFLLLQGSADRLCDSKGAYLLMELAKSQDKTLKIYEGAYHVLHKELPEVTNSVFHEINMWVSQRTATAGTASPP
Format: biochemical
Method: Compounds of formula (I) were profiled for MAGL inhibitory activity by determining the enzymatic activity by following the hydrolysis of the natural substrate 2-arachidonoylglycerol (2-AG) resulting in arachidonic acid, which can be followed by mass spectrometry. This assay is hereinafter abbreviated “2-AG assay”. The 2-AG assay was carried out in 384 well polypropylene assay plates. Compound dilutions were made in 100% DMSO in a polypropylene plate in 3-fold dilution steps to give a final concentration range in the assay from 12.5 μM to […]. Compound dilutions were added to MAGL protein in assay buffer (50 mM TRIS, 1 mM EDTA, 0.01% (v/v) Tween-20, 2.5% (v/v) DMSO). After shaking, the plate was incubated for 15 min at RT. To start the reaction, 2-arachidonoylglycerol in assay buffer was added. The final concentrations in the assay was […] for MAGL protein and 8 μM 2-arachidonoylglyerol. After shaking and 30 min incubation at RT, the reaction was quenched by the addition of two assay volumes of acetonitrile containing 4 μM of d8-arachidonic acid. The amount of arachidonic acid formed was traced by an online SPE system (Agilent Rapidfire) coupled to a triple quadrupole mass spectrometer. A C18 SPE cartridge (Agilent G9205A) was used in an acetonitrile/water liquid setup. The mass spectrometer was operated in negative electrospray mode following the mass transitions 303.1→259.1 for arachidonic acid and 311.1→267.0 for d8-arachidonic acid. The activity of the compounds was calculated based on the ratio of intensities [arachidonic acid/d8-arachidonic acid].
With `O=C(N1CC2(CC(c3nnc(C4(O)CC4)[nH]3)C2)C1)N1CC2(C1)CN(S(=O)(=O)c1cccc(C(F)(F)F)c1)C2` [compound 100] the IC50 was 66.1 nM. Work on `O=C(c1ccc(-c2ccccn2)s1)N1CCN(C(=O)N2CC3(CC(c4nnc(C5CC5)[nH]4)C3)C2)CC1` [Example 870, [4-[6-(5-cyclopropyl-4H-1,2,4-triazol-3-yl)-2-azaspiro[3.3]heptane-2-carbonyl]piperazino]-[5-(2-pyridyl)-2-thienyl]methanone] yielded an IC50 of 821 nM. Work on `N=S(=O)(c1cccc(CC2CC3(C2)CN(C(=O)N2CC4(CC(c5nc(C6(O)CC6)n[nH]5)C4)C2)C3)c1)C(F)(F)F` (stereo not drawn) [compound 639] yielded an IC50 of 0.21 nM. With `O=C(N1CCC(c2nn(C[C@H](O)C(F)(F)F)c3ccc(Cl)cc23)CC1)N1CC2(CC(c3nnc(C4CC4)[nH]3)C2)C1` [Example 864] the IC50 was 14.3 nM. In the case of `O=C(N1CC(c2ccc(C3(c4nnn[nH]4)CC3)cc2)C1)N1CC2(CC(c3nnc(C4CC4)[nH]3)C2)C1` [compound 379], the IC50 is reported as 61 nM. With `O=C(N1CC(Oc2ccc(C(F)(F)F)nn2)C1)N1CC2(CC(c3nnc(C4CC4)[nH]3)C2)C1` [compound 314] the IC50 was 4.76 nM. Work on `Cn1cc(CN2CC3(C2)CN(C(=O)N2CC4(CC(c5nc(C6CC6)n[nH]5)C4)C2)C3)c(C(F)(F)F)n1` [compound 472] yielded an IC50 of 17.7 nM. `CCc1ccc(C(=O)N2CCN(C(=O)N3CC4(CC(c5nnc(C6CC6)[nH]5)C4)C3)CC2)cc1` [compound 869] gave an IC50 of 115 nM. Work on `CCOc1cc(C)nn1-c1ccc(C2CN(C(=O)N3CC4(CC(c5nnc(C6CC6)[nH]5)C4)C3)C2)cc1` [Example 449, [6-(5-cyclopropyl-4H-1,2,4-triazol-3-yl)-2-azaspiro[3.3]heptan-2-yl]-[3-[4-(5-ethoxy-3-methyl-pyrazol-1-yl)phenyl]azetidin-1-yl]methanone] yielded an IC50 of 0.45 nM. With `O=C(N1CC2(CC(Cc3cc(F)cc(C(F)(F)F)c3)C2)C1)N1CC2(CC(c3nnc(C4(O)CC4)[nH]3)C2)C1` [compound 122] the IC50 was under 0.05 nM. `O=C(N1CCC(COc2ccc(F)c(C(F)(F)F)c2)CC1)N1CC2(CC(c3nc(C4(O)CC4)n[nH]3)C2)C1` [Example 916, [4-[[4-fluoro-3-(trifluoromethyl)phenoxy]methyl]piperidino]-[6-[3-(1-hydroxycyclopropyl)-1H-1,2,4-triazol-5-yl]-2-azaspiro[3.3]heptan-2-yl]methanone] was tested, and the IC50 was 39.7 nM. `N#Cc1ccc(CC2CC3(C2)CN(C(=O)N2CC4(CC(c5nc(C6(O)CC6)n[nH]5)C4)C2)C3)cc1C(F)(F)F` [compound 629] gave an IC50 of 1.45 nM. For `O=C(N1CC(NCc2ccc(C(F)(F)F)cc2Cl)C1)N1CC2(CC(c3nnc(C4CC4)[nH]3)C2)C1` [compound 190], the IC50 was 12.6 nM. Work on `Cc1onc(C2CC2)c1CN1CC2(C1)CN(C(=O)N1CC3(CC(c4nc(C5CC5)n[nH]4)C3)C1)C2` [compound 686] yielded an IC50 of 14.2 nM. Work on `O=C(N1CC(c2ccc(OC(F)(F)F)c(F)c2)C1)N1CC2(CC(c3nnc(C4(O)CC4)[nH]3)C2)C1` [compound 242] yielded an IC50 of 2.23 nM. `O=C(N1CC(NCc2cc(F)ccc2C(F)(F)F)C1)N1CC2(CC(c3nnc(C4CC4)[nH]3)C2)C1` [compound 187] was tested, and the IC50 was 70.5 nM. With `O=C(N1CC2(CC(c3nnc(C4CC4)[nH]3)C2)C1)N1CC2(CC(N3CC(C(F)(F)F)C3)C2)C1` [compound 83] the IC50 was 25.7 nM. `Cn1nc(CC2CC3(C2)CN(C(=O)N2CC4(CC(c5nc(C6COC6)n[nH]5)C4)C2)C3)cc1C(F)(F)F` [compound 744] showed an IC50 of 13.6 nM. With `O=C(N1CC2(CC(c3nnc(C4CC4)[nH]3)C2)C1)N1CC2(C1)CN(S(=O)(=O)c1ccc(F)cc1F)C2` [compound 105] the IC50 was 21.3 nM. `O=C(N1CC2(CC(OCC3(C(F)(F)F)CC3)C2)C1)N1CC2(CC(c3nnc(C4CC4)[nH]3)C2)C1` [compound 68] was tested, and the IC50 was 5.36 nM. `Cn1ncc(C(F)(F)F)c1CN1CC2(C1)CN(C(=O)N1CC3(CC(c4nc(C5CC(F)(F)C5)n[nH]4)C3)C1)C2` [compound 658] showed an IC50 of 412 nM. Molecule `O=C(N1CC(c2ccc(C3(C(F)(F)F)CC3)nn2)C1)N1CC2(CC(c3nnc(C4CC4)[nH]3)C2)C1` [compound 234] has an IC50 of 139 nM. `O=C(N1CC2(CCN(Cc3cc(C(F)(F)F)on3)CC2)C1)N1CC2(CC(c3nc(C4CC4)n[nH]3)C2)C1` [compound 544] was tested, and the IC50 was 8.72 nM. Work on `O=C(N1CC(c2ccc(C3(C(F)(F)F)CC3)cc2)C1)N1CC2(CC(c3nnc(C4(O)CC4)[nH]3)C2)C1` [compound 227] yielded an IC50 of 0.91 nM. Molecule `O=C(N1CC(c2ccc(NC3(C(F)(F)F)CC3)nc2)C1)N1CC2(CC(c3nnc(C4CC4)[nH]3)C2)C1` [Example 1, [6-(5-cyclopropyl-4H-1,2,4-triazol-3-yl)-2-azaspiro[3.3]heptan-2-yl]-[3-[6-[[1-(trifluoromethyl)cyclopropyl]amino]-3-pyridyl]azetidin-1-yl]methanone] has an IC50 of 0.94 nM. With `O=C(N1CC(c2ccc([C@H]3C[C@@H](C(F)F)C3)cc2)C1)N1CC2(CC(c3nnc(C4CC4)[nH]3)C2)C1` (single isomer, unassigned) [Example 305, cis-[6-(5-Cyclopropyl-4H-1,2,4-triazol-3-yl)-2-azaspiro[3.3]heptan-2-yl]-[3-[4-[3-(difluoromethyl)cyclobutyl]phenyl]azetidin-1-yl]methanone] the IC50 was 0.07 nM. Molecule `O=C(N1CC2(CC(c3nc(C4CC4)n[nH]3)C2)C1)N1CC2(CN(Cc3ccn(CC(F)(F)F)n3)C2)C1` [compound 618] has an IC50 of 95.1 nM. Molecule `N=S(=O)(c1ccc(C2CN(C(=O)N3CC4(CC(c5nc(C6CC6)n[nH]5)C4)C3)C2)cc1)C1CC1` (stereo not drawn) [compound 745] has an IC50 of 6.37 nM. `O=C(N1CC(OCc2ccc(C(F)(F)F)cc2F)C1)N1CC2(CC(c3nnc(C4CC4)[nH]3)C2)C1` [compound 311] showed an IC50 of 2.35 nM. With `NC(=O)C1CCCN1c1ccc(C2CN(C(=O)N3CC4(CC(c5nnc(C6CC6)[nH]5)C4)C3)C2)cc1` (stereo not drawn) [compound 386] the IC50 was 246 nM. In the case of `O=C(N1CC(C23CC(S(=O)(=O)c4ccc(C(F)(F)F)cc4)(C2)C3)C1)N1CC2(CC(c3nc(C4CC4)n[nH]3)C2)C1` [compound 722], the IC50 is reported as 57.1 nM. For `O=C(N1CC2(CC(Cc3nnc(C4(C(F)(F)F)CC4)o3)C2)C1)N1CC2(CC(c3nc(C4CC(F)(F)C4)n[nH]3)C2)C1` [compound 738], the IC50 was 328 nM. In the case of `O=C(N1CC(c2ccc(N3CC(C(F)(F)F)C3)cc2)C1)N1CC2(CC(c3nnc(C4CC4)[nH]3)C2)C1` [compound 261], the IC50 is reported as 0.36 nM. `Cc1cc(C2CC2)nn1-c1ccc(C2CN(C(=O)N3CC4(CC(c5nc(C6(O)CC6)n[nH]5)C4)C3)C2)cc1` [compound 821] showed an IC50 of 2 nM. `Cn1nc(CC2CC3(C2)CN(C(=O)N2CC4(CC(c5nc(C6CC6)n[nH]5)C4)C2)C3)cc1C(F)(F)F` [compound 506] showed an IC50 of 0.12 nM. With `N#Cc1cc(CC2CC3(C2)CN(C(=O)N2CC4(CC(c5nc(C6(F)CC6)n[nH]5)C4)C2)C3)ccc1C(F)(F)F` [compound 585] the IC50 was 0.06 nM. `O=C(N1CC2(CC(c3nc(C4CC4)n[nH]3)C2)C1)N1CC2(CN(Cc3ccn(CCC(F)(F)F)n3)C2)C1` [compound 972] showed an IC50 of 81.1 nM. For `O=C(N1CC(OCc2ccc(S(=O)(=O)C(F)(F)F)cc2F)C1)N1CC2(CC(c3nnc(C4CC4)[nH]3)C2)C1` [compound 309], the IC50 was 2.2 nM. Work on `CC(C)(C)Cc1nnc(C23CC(C4CN(C(=O)N5CC6(CC(c7nc(C8(F)CC8)n[nH]7)C6)C5)C4)(C2)C3)s1` [compound 492] yielded an IC50 of 3.84 nM. Molecule `CC(C)(C)c1ncc(CN2CC3(C2)CN(C(=O)N2CC4(CC(c5nc(C6CC6)n[nH]5)C4)C2)C3)s1` [compound 415] has an IC50 of 4.43 nM. With `N#Cc1cc(CC2CC3(C2)CN(C(=O)N2CC4(CC(c5nc(C6CC6)n[nH]5)C4)C2)C3)cc(C(F)(F)F)c1` [compound 867] the IC50 was 0.1 nM. Work on `O=C(N1CC(COc2ccc(F)cc2Cl)C1)N1CC2(CC(c3nnc(C4CC4)[nH]3)C2)C1` [compound 353] yielded an IC50 of 5.12 nM. With `O=C(N1CC(OCC2CC3C(C2)C3(F)F)C1)N1CC2(CC(c3nnc(C4CC4)[nH]3)C2)C1` (stereo not drawn) [compound 327] the IC50 was 24.9 nM. Molecule `CP(C)(=O)c1ccc(CC2CC3(C2)CN(C(=O)N2CC4(CC(c5nnc(C6CC6)[nH]5)C4)C2)C3)c(C(F)(F)F)c1` [compound 890] has an IC50 of 1.22 nM. In the case of `O=C(N1CC2(CC(Cc3ncc(C(F)(F)F)cc3F)C2)C1)N1CC2(CC(c3nc(C4CC(F)(F)C4)n[nH]3)C2)C1` [compound 508], the IC50 is reported as 6.66 nM. Work on `Cc1nc(CN2CCN(C(=O)N3CC4(CC(c5nc(C6CC6)n[nH]5)C4)C3)CC2)co1` [Example 879, [6-(3-cyclopropyl-1H-1,2,4-triazol-5-yl)-2-azaspiro[3.3]heptan-2-yl]-[4-[(2-methyloxazol-4-yl)methyl]piperazino]methanone] yielded an IC50 of 300 nM. Work on `CS(=O)(=O)c1cc(C2CN(C(=O)N3CC4(CC(c5nnc(C6CC6)[nH]5)C4)C3)C2)ccc1C1CCC1` [compound 297] yielded an IC50 of 3.16 nM. `O=C(N1CC2(CC(c3nc(C4CC4)n[nH]3)C2)C1)N1CC2(CN(Cc3ccc(=O)[nH]c3)C2)C1` [compound 541] gave an IC50 of 1110 nM.
